Patent US20080194585A1, “Fungicidal Pyrazine Derivatives” (priority 2005, published 2008)
Marks after values point to notes of the source that are not given here.

Key:
Phytophthora infestans = experiment: whole plant or invertebrate; format: in vivo
fusarium graminearium = experiment: Test I: wheat head scab, preventive spray on wheat seedlings
Experimental: (the causal agent of wheat head scab) and incubated in a saturated atmosphere at 20° C. for 72 h, and then moved to a growth chamber at 22° C. for 5 days, after which disease ratings were made.

[1] = system: Erysiphe graminis f. sp. tritici; experiment: Test L: wheat powdery mildew, preventive spray on wheat seedlings
Rhizoctonia oryzae = experiment: Test G: turf brown patch, preventive spray on creeping bent grass seedlings
Experimental: (the causal agent of turf brown patch) and incubated in a saturated atmosphere at 27° C. for 24 h, and then moved to a growth chamber at 27° C. for 5 days, after which disease ratings were made.

[2] = system: Puccinia recondita f. sp. tritici; experiment: Test K: wheat leaf rust, preventive spray on wheat seedlings
Sclerotinia sclerotiorum = experiment: Test C: cucumber white mold, preventive spray on cucumber seedlings
[3] = system: Colletotrichum orbiculare; experiment: Test B: cucumber Colletotrichum anthracnose, preventive spray on cucumber seedlings
Septoria nodorum = experiment: Test H: wheat glum blotch, preventive spray on wheat seedlings
Experimental: (the causal agent of wheat glum blotch) and incubated in a saturated atmosphere at 20° C. for 48 h, and then moved to a growth chamber at 22° C. for 5 days, after which disease ratings were made.

Botrytis cinerea = experiment: Test E: tomato botrytis, preventive spray on tomato seedlings
Septoria tritici = experiment: Test J: wheat leaf blotch, preventive spray on wheat seedlings; format: in vivo
Excerpt: A dash (-) indicates no test results.

Plasmopara viticola = experiment: Test D: grape downy mildew, spray after inoculation of grape seedlings; format: in vivo
Excerpt: Upon removal, disease ratings were made. […] A dash (-) indicates no test results.

Pythium aphanidermatum = experiment: Test A: bluegrass pythium blight, preventive spray on bluegrass seedlings
[4] = 200 ppm, 100 = 100% disease control, 0 = no control

| SMILES | Test F disease control rating (Phytophthora infestans; 40 ppm (*)) | Test I disease control rating (fusarium graminearium; 40 ppm (*)) | Test L disease control rating ([1]; 40 ppm (*)) | Test G disease control rating (Rhizoctonia oryzae; 40 ppm (*)) | Test K disease control rating ([2]; 40 ppm (*)) | Test C disease control rating (Sclerotinia sclerotiorum; 40 ppm (*)) | Test B disease control rating ([3]; 40 ppm (*)) | Test H disease control rating (Septoria nodorum; 40 ppm (*)) | Test E disease control rating (Botrytis cinerea; 40 ppm (*)) | Test J disease control rating (Septoria tritici; 40 ppm (*)) | Test D disease control rating (Plasmopara viticola; 40 ppm (*)) | Test A disease control rating (Pythium aphanidermatum; 40 ppm (*)) | further results |
| --- | --- | --- | --- | --- | --- | --- | --- | --- | --- | --- | --- | --- | --- |
| COC(=O)c1ccc(-c2c(Cl)nc(-n3cccn3)c(=O)n2CC(C)C)cc1 [compound 147] |  |  |  |  |  |  |  |  |  |  |  |  | Test F disease control rating (Phytophthora infestans; 200 ppm): 93%; Test I disease control rating (fusarium graminearium; 200 ppm): 0%; Test L disease control rating ([1]; 200 ppm): 0%; Test G disease control rating (Rhizoctonia oryzae; 200 ppm): 0%; Test K disease control rating ([2]; 200 ppm): 80%; Test C disease control rating (Sclerotinia sclerotiorum; 200 ppm): 0%; Test B disease control rating ([3]; 200 ppm): 0%; Test H disease control rating (Septoria nodorum; 200 ppm): 0%; Test E disease control rating (Botrytis cinerea; 200 ppm): 97%; Test J disease control rating (Septoria tritici; 200 ppm): 96%; Test D disease control rating (Plasmopara viticola; 200 ppm): 92%; Test A disease control rating (Pythium aphanidermatum; 200 ppm): 0% |
| CC(C)Cn1c(-c2ccccc2)c(Cl)nc(-n2cccn2)c1=O [compound 172] | 57* % | 0* % | 0* % | 41* % | 0* % | 0* % | 0* % | 0* % | 07* % | 64* % | 0* % | 0* % |  |
| CC(C)Cn1c(-c2ccccc2)c(Cl)nc(-n2cncn2)c1=O [compound 173] | 0* % | 0* % | 0* % | 0* % | 0* % | 0* % | 0* % | 0* % | 0* % | 45* % | 0* % | 0* % |  |
| COc1ccccc1-c1c(Cl)nc(-n2cncn2)c(=O)n1CC(C)C [compound 177] | 0* % | 0* % | 0* % | 0* % | 0* % | 0* % | 0* % | 0* % | 0* % | 7* % | 0* % | 0* % |  |
| CC(C)Cn1c(-c2cccc(F)c2)c(Cl)nc(-n2cncn2)c1=O [compound 230] | 0* % | 0* % | 0* % | 0* % | 0* % | 0* % | 0* % | 0* % | 82* % | 24* % | 0* % | 0* % |  |
| CC(C)Cn1c(-c2cccc(F)c2)c(Cl)nc(-n2cccn2)c1=O [compound 231] | 0* % | 0* % | 0* % | 0* % | 28* % | 0* % | 0* % | 0* % | 99* % | 89* % | 0* % | 0* % |  |
| CC(C)Cn1c(-c2cccc(C(F)(F)F)c2)c(Cl)nc(-n2cncn2)c1=O [compound 232] | 0* % | 0* % | 0* % | 0* % | 0* % | 0* % | 0* % | 0* % | 0* % | 0* % | 0* % | 0* % |  |
| CC(C)Cn1c(-c2cccc(C(F)(F)F)c2)c(Cl)nc(-n2cccn2)c1=O [compound 233] | 0* % | 0* % | 0* % | 0* % | 0* % | 0* % | 0* % | 0* % | 0* % | 0* % | 0* % | 0* % |  |
| CC(C)Cn1c(-c2cccc(Br)c2)c(Cl)nc(-n2cncn2)c1=O [compound 234] | 0* % | 0* % | 0* % | 0* % | 0* % | 0* % | 0* % | 0* % | 0* % | 0* % | 0* % | 0* % |  |
| CC(C)Cn1c(-c2cccnc2)c(Cl)nc(-n2cncn2)c1=O [compound 235] | 0* % | 0* % | 0* % | 0* % | 0* % | 0* % | 0* % | 0* % | 0* % | 0* % | 0* % | 45* % |  |
| CC(C)Cn1c(-c2cccnc2Cl)c(Cl)nc(-n2cncn2)c1=O [compound 236] | 0* % | 0* % | 0* % | 0* % | 0* % | 0* % | 0* % | 0* % | 0* % | 0* % | 0* % | 0* % |  |
| CC(C)Cn1c(-c2cccnc2)c(Cl)nc(-n2cccn2)c1=O [compound 237] | 0* % | 0* % | 0* % | 0* % | 0* % | 0* % | 0* % | 0* % | 0* % | 24* % | 0* % | 0* % |  |
| CC(CF)n1c(-c2c(F)cccc2F)c(Cl)nc(-n2cccn2)c1=O (stereo not drawn) [compound 238] | 0* % | 0* % | 74* % | 93* % | 100* % | 0* % | 63* % | 98* % | 99* % | 96* % | 0* % | 0* % |  |
| Cc1ccn(-c2nc(Br)c(-c3c(F)cccc3F)n(CC(C)C)c2=O)n1 [compound 242] | 0* % | 0* % | 99* % | 82* % | 92* % | 0* % | 73* % | 94* % | 100* % | 100* % | 0* % | 0* % |  |
| Cc1ccn(-c2nc(Cl)c(-c3cccc4c3OCO4)n(CC(C)C)c2=O)n1 [compound 255] |  |  |  |  |  |  |  |  |  |  |  |  | Test F disease control rating (Phytophthora infestans; [4]): 0%; Test I disease control rating (fusarium graminearium; [4]): 0%; Test L disease control rating [1, 4]: 0%; Test G disease control rating (Rhizoctonia oryzae; [4]): 0%; Test K disease control rating [2, 4]: 61%; Test C disease control rating (Sclerotinia sclerotiorum; [4]): 0%; Test B disease control rating [3, 4]: 0%; Test H disease control rating (Septoria nodorum; [4]): 0%; Test E disease control rating (Botrytis cinerea; [4]): 99%; Test J disease control rating (Septoria tritici; [4]): 71%; Test D disease control rating (Plasmopara viticola; [4]): 0%; Test A disease control rating (Pythium aphanidermatum; [4]): 0% |
| Cc1ccn(-c2nc(Cl)c(-c3ccc4c(c3)OC(F)(F)O4)n(CC(C)C)c2=O)n1 [compound 256] |  |  |  |  |  |  |  |  |  |  |  |  | Test F disease control rating (Phytophthora infestans; [4]): 0%; Test I disease control rating (fusarium graminearium; [4]): 0%; Test L disease control rating [1, 4]: 0%; Test G disease control rating (Rhizoctonia oryzae; [4]): 0%; Test K disease control rating [2, 4]: 0%; Test C disease control rating (Sclerotinia sclerotiorum; [4]): 0%; Test B disease control rating [3, 4]: 0%; Test H disease control rating (Septoria nodorum; [4]): 0%; Test E disease control rating (Botrytis cinerea; [4]): 0%; Test J disease control rating (Septoria tritici; [4]): 38%; Test D disease control rating (Plasmopara viticola; [4]): 0%; Test A disease control rating (Pythium aphanidermatum; [4]): 0% |
